Key:
[1] = system: Wheat plants, variety ARINA; assay: Effect of 1-MCP on stressed wheat plants grown in pouches (drought stress); type: in vivo; conditions: 200 ppm in the pouch water at day 8; 5 days without watering at 26° C.; FIG. 1
Method: FIG. 1 illustrates wheat plants grown in pouches. On the right-hand side plants treated with 1-MCP and on the left-hand side non treated check plants.
10 mL of the mixture are added per pouch with a pipette.
20 to 25 Wheat kernels from the variety ARINA were sown in a plastic bag (pouch) with an absorbent paper, watered and grown under optimal conditions in a climate chamber for 8 days. At day 8 the 1-MCP in the form of an α-cyclodextrin molecularly encapsulated powder was applied at a 200 ppm rate to the water in the pouch. After application the plants were not watered anymore, but placed in a warm environment at 26° C. After 5 days without watering the differences of treated vs. untreated were evaluated visually (FIG. 1).

[2] = system: 5-6 leaf tomato plants (var. Rutgers); assay: Tomato epinasty test (Cerone/ethephon challenge); type: in vivo; conditions: 200 l/ha, average of 8 plants
Method: Bioassay test material: 5-6 leaf tomato plants (var. Rutgers), 8 reps/treatment.
The first column of table 1 provides a summary of change in angle of the 3rd leaf petiole at 24 hours after application of Cerone (ethephon). There are two sets of data, one for those challenged with Cerone at 4 hours after 1-MCP formulation application and a second set for plants challenged with Cerone at 24 hrs after 1-MCP formulation application. Data are the averages of 8 replicate plants
Procedures Used for Epinasty Test:
1-MCP formulation and rates: 1-MCP in the form of an α-cyclodextrin molecularly encapsulated powder dispersed in an aqueous MgSO4 solution
Standard foliar spray at 200 l/ha and 0.035% v/v kinetic silicon adjuvant 0, 10 and 20 g ai/ha
Application rate 500 g ai/ha at 400 l/ha application volume
Application at 4 and 24 HAA of Invinsa
Angle of 3rd petiole to plants stem measured prior to 1-MCP application and again at 24 HAT Final data expressed as average change in 3rd petiole angle

[3] = cited from earlier work
[4] = system: 5-6 leaf tomato plants (var. Rutgers); assay: Tomato epinasty test (Cerone/ethephon challenge); type: in vivo; conditions: average of 8 plants

CC1=CC1 [1-MCP, 1-methylcyclopropene]
drought tolerance of treated vs. untreated plants, evaluated visually [1]: greater drought tolerance than control plants | Average change in angle of third petiole ([2]; 10 g ai/ha foliar spray, Cerone applied 4 HAA 1-MCP): 71 | Average change in angle of third petiole ([2]; 10 g ai/ha foliar spray, Cerone applied 24 HAA 1-MCP): 82 | Average change in angle of third petiole ([2]; 20 g ai/ha foliar spray, Cerone applied 4 HAA 1-MCP): 40 | Average change in angle of third petiole ([2]; 20 g ai/ha foliar spray, Cerone applied 24 HAA 1-MCP): 86 | water-solubility [3]: 137 mg I−1 | Average change in angle of third petiole ([4]; 1 g ai/ha chemigation, Cerone applied 4 HAA 1-MCP): 60 | Average change in angle of third petiole ([4]; 1 g ai/ha chemigation, Cerone applied 24 HAA 1-MCP): 78 | Average change in angle of third petiole ([4]; 10 g ai/ha chemigation, Cerone applied 4 HAA 1-MCP): 20 | Average change in angle of third petiole ([4]; 10 g ai/ha chemigation, Cerone applied 24 HAA 1-MCP): 48 | Average change in angle of third petiole ([4]; 20 g ai/ha chemigation, Cerone applied 4 HAA 1-MCP): −9 | Average change in angle of third petiole ([4]; 20 g ai/ha chemigation, Cerone applied 24 HAA 1-MCP): 41 | Average change in angle of third petiole ([4]; >20 g ai/ha chemigation (incorrect pump calibration), Cerone applied 4 HAA 1-MCP): −4 | Average change in angle of third petiole ([4]; >20 g ai/ha chemigation (incorrect pump calibration), Cerone applied 24 HAA 1-MCP): 18
